One test deals with P388. The test can be described thus: Cytotoxicity against mouse P388 cells by MTT assay. Type of test: functional, cell-based. On the technique in general: Formazan colour is commonly taken as a measure of viable cells.
A short description of test [1]: Cytotoxicity against human CNE2 cells by MTT assay. The following applies: CNE-2. Type of test: functional, cell-based.

Values after ≈ are worked out from the molar mass of the structure shown.

In the case of `COC(=O)[C@@]12CC(=O)[C@@H](C(C)C)CC(=O)[C@@H](C)CCC[C@@H](C)CC(=O)[C@@H]1CC(C)=C1[C@@H]3C[C@@](C)(O)[C@H](CC[C@@H](C)C(=O)CC/C(C)=C/[C@H]12)O3` [METHYL TORTUOATE B], the IC50 with P388 worked out at 5 µg/mL (≈ 7.32 µM); in test [1] it was 24.7 µg/mL (≈ 36.2 µM).

Regarding `COC(=O)[C@@]12CC(=O)[C@@H](C(C)C)CC(=O)[C@@H](C)CCC[C@@H](C)CC(=O)[C@@H]1CC(C)=C1[C@H]2/C=C(\C)CC[C@H]2O[C@@H](CC=C2C)[C@](C)(O)C[C@@H]1O` [METHYL TORTUOATE A], the IC50 in the test with P388 worked out at 3.5 µg/mL (≈ 5.12 µM); in test [1], 22.7 µg/mL (≈ 33.2 µM).

In general, IC50 refers to the midpoint of a concentration-inhibition curve. A low value points to greater potency.

Values taken from ChEMBL document CHEMBL1148954, “Two new cytotoxic tetracyclic tetraterpenoids from the soft coral Sarcophyton tortuosum” (J Nat Prod, 2004).
